Legend:
Details in all cases: Compound concentration 10 µM
[1] = target: T1, D(4) dopamine receptor (Homo sapiens) (UniProt P21917)
T1 sequence (whole entry): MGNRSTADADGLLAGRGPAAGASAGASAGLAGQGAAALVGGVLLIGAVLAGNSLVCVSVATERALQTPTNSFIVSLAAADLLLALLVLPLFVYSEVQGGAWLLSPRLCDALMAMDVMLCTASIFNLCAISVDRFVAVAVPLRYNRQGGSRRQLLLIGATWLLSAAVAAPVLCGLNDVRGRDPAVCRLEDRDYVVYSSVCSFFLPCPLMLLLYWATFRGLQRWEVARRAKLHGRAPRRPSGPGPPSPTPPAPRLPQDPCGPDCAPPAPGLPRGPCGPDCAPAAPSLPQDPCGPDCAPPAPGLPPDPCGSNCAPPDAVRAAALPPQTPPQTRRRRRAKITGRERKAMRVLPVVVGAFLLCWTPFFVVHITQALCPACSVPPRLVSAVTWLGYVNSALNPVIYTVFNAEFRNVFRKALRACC
Description: PDSP Primary Binding target: DRD4 - Compounds are tested at 10 uM concentration, plate are incubated at room temperature in the dark for 90 minutes. Reaction are stopped by vacuum filtration onto 0.3% polyethyleneimine soaked filter mats using Filtermate harvester. Scintilation cocktail is then melted onto microwave-dried filters on a hot plate and the radio activity is counted in Microbia counter.

[2] = target: Beta-1 adrenergic receptor (Homo sapiens) (UniProt P08588)
Description: PDSP Primary Binding target: ADRB1 - Compounds are tested at 10 uM concentration, plate are incubated at room temperature in the dark for 90 minutes. Reaction are stopped by vacuum filtration onto 0.3% polyethyleneimine soaked filter mats using Filtermate harvester. Scintilation cocktail is then melted onto microwave-dried filters on a hot plate and the radio activity is counted in Microbia counter.

[3] = target: Mu-type opioid receptor (Homo sapiens) (UniProt P35372)
Description: PDSP Primary Binding target: OPRM1 - Compounds are tested at 10 uM concentration, plate are incubated at room temperature in the dark for 90 minutes. Reaction are stopped by vacuum filtration onto 0.3% polyethyleneimine soaked filter mats using Filtermate harvester. Scintilation cocktail is then melted onto microwave-dried filters on a hot plate and the radio activity is counted in Microbia counter.

[4] = target: T2, Muscarinic acetylcholine receptor M5 (Homo sapiens) (UniProt P08912)
T2 sequence (whole entry): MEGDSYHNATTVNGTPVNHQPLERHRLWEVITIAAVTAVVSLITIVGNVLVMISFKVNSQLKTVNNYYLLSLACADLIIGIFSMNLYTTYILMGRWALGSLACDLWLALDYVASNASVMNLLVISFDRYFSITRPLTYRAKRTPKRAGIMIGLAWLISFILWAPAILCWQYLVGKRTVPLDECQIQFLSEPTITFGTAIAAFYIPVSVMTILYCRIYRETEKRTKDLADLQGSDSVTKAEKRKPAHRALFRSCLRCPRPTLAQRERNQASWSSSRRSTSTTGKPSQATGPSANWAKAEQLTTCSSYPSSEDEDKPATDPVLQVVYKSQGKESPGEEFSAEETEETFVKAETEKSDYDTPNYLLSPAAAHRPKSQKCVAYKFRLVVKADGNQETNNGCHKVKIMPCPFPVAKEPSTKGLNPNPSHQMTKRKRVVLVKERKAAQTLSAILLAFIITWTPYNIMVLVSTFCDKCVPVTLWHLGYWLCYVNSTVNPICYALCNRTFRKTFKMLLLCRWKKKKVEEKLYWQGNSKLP
Description: PDSP Primary Binding target: CHRM5 - Compounds are tested at 10 uM concentration, plate are incubated at room temperature in the dark for 90 minutes. Reaction are stopped by vacuum filtration onto 0.3% polyethyleneimine soaked filter mats using Filtermate harvester. Scintilation cocktail is then melted onto microwave-dried filters on a hot plate and the radio activity is counted in Microbia counter.

[5] = target: Sodium-dependent noradrenaline transporter (Homo sapiens) (UniProt P23975)
Description: PDSP Primary Binding target: SLC6A2 - Compounds are tested at 10 uM concentration, plate are incubated at room temperature in the dark for 90 minutes. Reaction are stopped by vacuum filtration onto 0.3% polyethyleneimine soaked filter mats using Filtermate harvester. Scintilation cocktail is then melted onto microwave-dried filters on a hot plate and the radio activity is counted in Microbia counter.

[6] = target: T3, Muscarinic acetylcholine receptor M2 (Homo sapiens) (UniProt P08172)
T3 sequence (whole entry): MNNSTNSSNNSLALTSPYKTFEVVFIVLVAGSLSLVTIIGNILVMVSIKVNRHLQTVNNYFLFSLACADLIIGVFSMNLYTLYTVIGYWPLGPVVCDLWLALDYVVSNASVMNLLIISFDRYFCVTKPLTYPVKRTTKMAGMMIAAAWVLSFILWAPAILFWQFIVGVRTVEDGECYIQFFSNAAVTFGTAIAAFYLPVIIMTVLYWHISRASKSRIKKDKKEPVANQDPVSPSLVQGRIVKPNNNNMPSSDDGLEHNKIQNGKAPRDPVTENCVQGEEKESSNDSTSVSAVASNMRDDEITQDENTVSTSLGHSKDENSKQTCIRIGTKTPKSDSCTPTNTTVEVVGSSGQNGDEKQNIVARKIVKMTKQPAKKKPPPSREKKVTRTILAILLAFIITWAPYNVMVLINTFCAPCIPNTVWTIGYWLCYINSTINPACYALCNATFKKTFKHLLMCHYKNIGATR
Description: PDSP Primary Binding target: CHRM2 - Compounds are tested at 10 uM concentration, plate are incubated at room temperature in the dark for 90 minutes. Reaction are stopped by vacuum filtration onto 0.3% polyethyleneimine soaked filter mats using Filtermate harvester. Scintilation cocktail is then melted onto microwave-dried filters on a hot plate and the radio activity is counted in Microbia counter.

[7] = target: T4, Alpha-2B adrenergic receptor (Homo sapiens) (UniProt P18089)
T4 sequence (whole entry): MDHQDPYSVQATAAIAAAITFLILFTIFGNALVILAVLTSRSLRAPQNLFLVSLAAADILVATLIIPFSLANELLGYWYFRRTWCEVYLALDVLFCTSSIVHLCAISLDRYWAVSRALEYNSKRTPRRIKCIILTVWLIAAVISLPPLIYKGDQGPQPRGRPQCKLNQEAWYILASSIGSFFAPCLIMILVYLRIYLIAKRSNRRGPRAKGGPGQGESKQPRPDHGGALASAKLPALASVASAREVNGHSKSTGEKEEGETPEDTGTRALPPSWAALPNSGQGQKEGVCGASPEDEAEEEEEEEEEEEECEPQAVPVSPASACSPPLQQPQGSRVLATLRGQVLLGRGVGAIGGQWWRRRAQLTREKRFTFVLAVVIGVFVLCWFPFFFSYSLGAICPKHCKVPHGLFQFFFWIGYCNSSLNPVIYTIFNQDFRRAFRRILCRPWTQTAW
Description: PDSP Primary Binding target: ADRA2B - Compounds are tested at 10 uM concentration, plate are incubated at room temperature in the dark for 90 minutes. Reaction are stopped by vacuum filtration onto 0.3% polyethyleneimine soaked filter mats using Filtermate harvester. Scintilation cocktail is then melted onto microwave-dried filters on a hot plate and the radio activity is counted in Microbia counter.

[8] = target: D(3) dopamine receptor (Homo sapiens) (UniProt P35462)
Description: PDSP Primary Binding target: DRD3 - Compounds are tested at 10 uM concentration, plate are incubated at room temperature in the dark for 90 minutes. Reaction are stopped by vacuum filtration onto 0.3% polyethyleneimine soaked filter mats using Filtermate harvester. Scintilation cocktail is then melted onto microwave-dried filters on a hot plate and the radio activity is counted in Microbia counter.

[9] = target: T5, Muscarinic acetylcholine receptor M4 (Homo sapiens) (UniProt P08173)
T5 sequence (whole entry): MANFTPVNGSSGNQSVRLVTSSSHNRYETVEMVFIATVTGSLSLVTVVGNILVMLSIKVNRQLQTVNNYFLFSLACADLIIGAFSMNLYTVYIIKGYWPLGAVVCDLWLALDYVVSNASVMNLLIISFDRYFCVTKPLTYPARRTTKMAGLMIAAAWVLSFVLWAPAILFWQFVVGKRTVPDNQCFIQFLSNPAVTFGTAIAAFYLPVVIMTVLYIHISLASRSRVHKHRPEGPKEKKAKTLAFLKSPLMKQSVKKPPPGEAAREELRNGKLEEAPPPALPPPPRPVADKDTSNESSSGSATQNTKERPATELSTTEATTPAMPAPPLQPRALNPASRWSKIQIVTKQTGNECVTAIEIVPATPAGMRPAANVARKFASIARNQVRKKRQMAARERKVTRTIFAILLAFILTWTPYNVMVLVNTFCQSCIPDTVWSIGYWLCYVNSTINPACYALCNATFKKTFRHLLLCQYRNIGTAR
Description: PDSP Primary Binding target: CHRM4 - Compounds are tested at 10 uM concentration, plate are incubated at room temperature in the dark for 90 minutes. Reaction are stopped by vacuum filtration onto 0.3% polyethyleneimine soaked filter mats using Filtermate harvester. Scintilation cocktail is then melted onto microwave-dried filters on a hot plate and the radio activity is counted in Microbia counter.

Mu-type opioid receptor (Homo sapiens), sequence (P35372 whole entry): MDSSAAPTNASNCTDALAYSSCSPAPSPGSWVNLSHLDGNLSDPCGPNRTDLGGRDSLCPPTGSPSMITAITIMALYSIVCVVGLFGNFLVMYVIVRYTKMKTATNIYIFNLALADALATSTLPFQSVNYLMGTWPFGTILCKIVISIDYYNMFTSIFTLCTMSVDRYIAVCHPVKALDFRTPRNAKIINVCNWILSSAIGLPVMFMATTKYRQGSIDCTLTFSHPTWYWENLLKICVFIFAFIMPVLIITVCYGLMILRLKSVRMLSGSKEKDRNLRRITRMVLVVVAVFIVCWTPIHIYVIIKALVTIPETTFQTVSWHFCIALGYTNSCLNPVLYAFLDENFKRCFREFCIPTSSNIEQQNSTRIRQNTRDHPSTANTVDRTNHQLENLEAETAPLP
Beta-1 adrenergic receptor (Homo sapiens), sequence (P08588 whole entry, looked up): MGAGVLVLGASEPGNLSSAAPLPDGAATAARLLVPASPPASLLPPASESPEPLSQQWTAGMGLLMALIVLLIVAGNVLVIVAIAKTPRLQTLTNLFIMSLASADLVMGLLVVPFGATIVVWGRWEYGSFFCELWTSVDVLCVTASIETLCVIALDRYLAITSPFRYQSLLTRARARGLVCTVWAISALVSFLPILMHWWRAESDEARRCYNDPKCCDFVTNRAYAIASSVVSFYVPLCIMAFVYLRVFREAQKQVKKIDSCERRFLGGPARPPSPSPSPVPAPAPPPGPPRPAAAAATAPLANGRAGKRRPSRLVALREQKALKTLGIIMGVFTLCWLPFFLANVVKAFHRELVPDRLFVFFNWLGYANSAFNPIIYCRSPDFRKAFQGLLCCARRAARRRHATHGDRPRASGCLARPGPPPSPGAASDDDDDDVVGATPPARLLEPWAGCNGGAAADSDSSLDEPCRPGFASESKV
D(3) dopamine receptor (Homo sapiens), sequence (P35462 whole entry): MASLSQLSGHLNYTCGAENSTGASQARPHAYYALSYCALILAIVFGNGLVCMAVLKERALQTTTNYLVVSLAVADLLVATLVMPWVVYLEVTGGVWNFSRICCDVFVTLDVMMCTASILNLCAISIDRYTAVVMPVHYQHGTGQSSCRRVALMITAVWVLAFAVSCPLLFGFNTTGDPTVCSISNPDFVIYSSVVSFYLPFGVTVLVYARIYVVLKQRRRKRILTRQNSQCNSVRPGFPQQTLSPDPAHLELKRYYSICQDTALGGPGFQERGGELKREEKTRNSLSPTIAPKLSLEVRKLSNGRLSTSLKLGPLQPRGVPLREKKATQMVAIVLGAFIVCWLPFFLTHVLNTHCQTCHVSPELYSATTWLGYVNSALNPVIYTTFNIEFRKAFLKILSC
Sodium-dependent noradrenaline transporter (Homo sapiens), sequence (P23975 whole entry): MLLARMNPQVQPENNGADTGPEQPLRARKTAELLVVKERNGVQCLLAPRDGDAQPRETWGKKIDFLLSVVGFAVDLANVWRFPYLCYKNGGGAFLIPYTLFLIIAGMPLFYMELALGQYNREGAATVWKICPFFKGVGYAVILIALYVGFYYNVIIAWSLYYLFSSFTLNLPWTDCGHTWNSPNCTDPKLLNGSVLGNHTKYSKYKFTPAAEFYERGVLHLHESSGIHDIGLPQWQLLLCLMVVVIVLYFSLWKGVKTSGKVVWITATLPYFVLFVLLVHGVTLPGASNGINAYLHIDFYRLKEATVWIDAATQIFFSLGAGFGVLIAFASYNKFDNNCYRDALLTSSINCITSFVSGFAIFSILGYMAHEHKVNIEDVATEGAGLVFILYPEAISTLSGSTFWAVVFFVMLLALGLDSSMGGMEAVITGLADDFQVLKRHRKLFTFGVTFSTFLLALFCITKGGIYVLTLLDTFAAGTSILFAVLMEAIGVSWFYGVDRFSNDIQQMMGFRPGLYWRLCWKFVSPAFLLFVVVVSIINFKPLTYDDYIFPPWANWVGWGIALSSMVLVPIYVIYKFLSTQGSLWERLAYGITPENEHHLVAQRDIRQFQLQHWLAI

Structure (SMILES) | inhibition [1] | inhibition [2] | inhibition [3] | inhibition [4] | inhibition [5] | inhibition [6] | inhibition [7] | inhibition [8] | inhibition [9]
COc1ccc(NC(=O)c2ccc(-c3ccc(-c4noc(C)n4)cc3C)cc2)cc1OCCN(C)C | 45.4% | 4.01% | 5.21% | 37.9% | 94% | 80.8% | 77.3% | 33.1% | 7.57%
Cc1nc(C#Cc2ccnc(Cl)c2)c(C)n1-c1ccc(OC(F)(F)F)cc1 | -0.11% | 29.4% | 13.4% | -6.77% | 1.45% | -0.78% | 67.9% | 13.1% | 15.4%
COc1ccc(CNC(=O)c2cc(-c3cncc(Cl)c3)cnc2-c2ccccn2)nc1OC | -1.86% | 30.3% | 30.5% | 0.79% | 39% | 10.6% | -7.15% | 7.89% | 
O=C(O)c1cc(-c2ccc(C3CCNCC3)cc2)c2ccc(-c3ccc(C(F)(F)F)cc3)cc2c1 |  | 47% | 26.5% | 51.9% | 88% | 10.7% | 40.4% | 28.9% | -1.1%
CC(C)NCC(O)COc1cccc2[nH]ccc12 (centres undefined) | 69.4% | 70.9% | 16.8% | 10.5% | 27.1% | -9.11% |  | 65.4% | 4.2%
N[C@H](C(=O)O)c1ccc(C(=O)O)c(C(=O)O)c1 | -8.24% | -5.64% | 29.8% | 14.1% | 54.5% | 45% | -4.38% | 62.5% | 
COc1ccc2cc(S(=O)(=O)N[C@H](CC(=O)N[C@H](Cc3ccc(CN4[C@H](C)CCC[C@@H]4C)cc3)C(=O)N(C)C(C)C)c3ccc4c(c3)OCO4)ccc2c1 | 33.2% | -0.19% | 40% | 52.8% | 25.7% | 69.6% | 33.5% | 26% | 46.7%
c1cc(CN2CCCNCCNCCCNCC2)ccc1CN1CCCNCCNCCCNCC1 |  | 34.9% | 13.8% | 1.58% | 33.4% | 67.7% | -9.59% | 37.2% | 41.7%
FC(F)(F)c1cccc(-c2noc(-c3cc(-c4ccccc4)c(C(F)(F)F)s3)n2)c1 | -0.65% | -3.82% | -7.64% | -4.18% |  | -7.48% |  |  | -0.35%
COc1cc2nc(N3CCN(C(=O)c4ccco4)CC3)nc(N)c2cc1OC | 27.4% | 2.66% | 50% | 3.19% | 26.5% | 15.9% |  | 37.6% | 2.17%
CN(C)C(=O)N[C@H]1CC[C@H](CCN2CCN(c3cccc(Cl)c3Cl)CC2)CC1 | 103% | 92.4% | 4.29% | 59.3% | 49.7% | 29.1% | 90.6% |  | 64%
CN1CCC(C(=O)c2cccc(NC(=O)c3c(F)cc(F)cc3F)n2)CC1 | 14% | -2.95% | 10.5% | 64% | 23.5% | -1.5% | 20.8% |  | 27%
OC[C@H]1O[C@@H](n2cnc3c(NC4CCCC4)ncnc32)[C@H](O)[C@@H]1O | 34% | 1.3% |  |  | 28.3% | 7.74% | 11% | 7.26% | 3.39%
CO[C@@H]1COCC[C@@H]1N[C@@H]1CC[C@@](C(=O)N2CCc3ncc(C(F)(F)F)cc3C2)(C(C)C)C1 | -3.53% | 28.2% | 11.2% | -4.29% |  | 8.25% |  | 33.7% | 
CN1C[C@H](C(=O)N[C@]2(C)O[C@@]3(O)[C@@H]4CCCN4C(=O)[C@H](Cc4ccccc4)N3C2=O)C[C@@H]2c3cccc4[nH]cc(c34)C[C@H]21 | 100% | 17.8% | 58.1% | 7.31% | 21.2% | 4.48% |  | 97.8% | -5.91%
O=C(O)C1CN(Cc2ccc(OCc3ccc(Cl)c(Cl)c3)cc2)C1 | -0.79% | -7.03% | 1.29% | -2.07% |  | -5.07% | 35.4% | 39.5% | 29.6%
CCCCCCCCCCCCC/C=C/[C@@H](O)[C@@H](N)COP(=O)(O)O |  | 0.96% | 30.4% | 6.31% | 35.1% | -7.68% | -1.62% | 1.79% | -2.5%
FC(F)(F)c1c(N2CCC(c3ccccc3)CC2)ccn2c(CC3CC3)nnc12 |  | 22.1% | 19.7% | -6.28% | 31.6% | 7.85% |  | 14.2% | 
CC1(C)SSC(C)(C)[C@@H](NC(=O)[C@@H](N)Cc2ccc(O)cc2)C(=O)NCC(=O)N[C@@H](Cc2ccccc2)C(=O)N[C@H]1C(=O)O | 49% | -5.41% |  |  | 3.43% | -9.99% | 6.52% | 0.23% | -2.51%
Cc1nc(-c2ccc(C(F)(F)F)cc2)sc1COc1ccc([C@H](CC(=O)O)c2ccon2)cc1 |  | 24.6% | -7.02% |  | 14.3% | 25.2% | -6.48% | 42.1% | 4.4%
